# PMC7395068, “The evolution of strategies to minimise the risk of human drug-induced liver injury (DILI) in drug discovery and development” (Archives of Toxicology, 2020)
# Like-named read-outs stand apart in the source and are kept apart here.
# Experiments:
# [1] = Plasma free fraction (fu) and unbound Cmax (Cmax,u); assay type: in vitro ADME, human; details: unbound plasma Cmax
# Experimental: The prediction of DILI severity was evaluated further using the 3D combined HCI assays using plasma-free fraction. The majority of fu values were obtained from literature, when unavailable in-house prediction was utilised. Unbound plasma Cmax concentrations (Cmax,u) were derived by multiplying total plasma Cmax with the corresponding free fraction (fu) for each compound.
# [2] = cited from earlier work
# [3] = tested on: HepG2 cells; details: cited from earlier work
# [4] = tested on: HepG2 cells; details: cited from earlier work; remark: listed apart in the source
# [5] = tested on: human hepatocytes; details: cited from earlier work
# [6] = tested on: THLE or HepG2 cells, isolated mitochondria, BSEP; details: cited from earlier work
# [7] = tested on: PHH; details: cited from earlier work
# [8] = tested on: hLiMTs; details: cited from earlier work
# [9] = tested on: PHH spheroids; details: cited from earlier work
# [10] = read-out: Human plasma Cmax; total plasma Cmax.tot, median of 9 literature references; cited from earlier work
# [11] = plasma free fraction; cited from earlier work
# [12] = cited from earlier work; remark: listed apart in the source
# [13] = tested on: THLE-Null and THLE-3A4 cells; details: In vitro Assay; ref Gustafsson 2014; cited from earlier work
# [14] = tested on: HepG2 cells, primary human hepatocytes; details: In vitro Assay; ref Garside 2014; cited from earlier work
# [15] = tested on: Upcyte human hepatocytes; details: In vitro Assay; ref Tolosa 2019; cited from earlier work
# [16] = ref Chen 2011; cited from earlier work
# [17] = tested on: rBsep; details: In vitro Assay; ref Dawson 2012; cited from earlier work
# [18] = tested on: hLiMTs; experiment: Combined HCI (HCS) and cellular ATP 3D assay in hLiMTs; details: for AC50 / minimal effective concentration: Homo sapiens
# [19] = tested on: HepaRG spheroids; experiment: Combined HCI (HCS) and cellular ATP 3D assay in HepaRG spheroids; details: for AC50 / minimal effective concentration: Homo sapiens
# [20] = Modeled in vitro assays (cytotoxicity, mitochondrial dysfunction, BSEP), ref Aleo et al. 2019
# [21] = In vitro Assay, ref Proctor 2017
# [22] = Microtissue model structural based (HCI), combined HCS and ATP, MEC < 25 × Cmax.tot cut-off
structure (smiles),measurement,setting,value
Cn1cnc([N+](=O)[O-])c1Sc1ncnc2nc[nH]c12 [azathioprine],"Human plasma Cmax,u",[1],5.048 µM
same,DILI severity category (Chen et al. [2016]),"[2]; LTKB DILIrank category, ref Chen et al. 2016",Most
same,DILI severity category (Chen 2016),"[2]; human DILI classification, LTKB DILIrank, ref Chen et al. 2016",Most
same,DILI severity category,"[2]; human DILI severity, ref Chen et al.",Most
same,"DILI +VE (5-8), DILI -VE (-4)",[2]; ref Chen 2016,+VE
same,DILI severity category,[2]; ref Chen 2016,vMost-DILI-Concern
same,Structural based (HCI),"[3]; In vitro Assay, ref O'Brien 2006",+VE
same,"DILI in vitro assay prediction, O'Brien (2006)","[3]; Structural based (HCI), HepG2, ref O'Brien et al. 2006",+VE (lowest HCI endpoint IC50 (or in the absence of dose–response < 100 µM) < 30 × total human plasma exposure levels (Cmax.tot))
same,Structural based (HCI),"[4]; In vitro Assay, ref Tolosa 2012",+VE
same,"DILI in vitro assay prediction, Tolosa (2012)","[4]; Structural based (HCI), HepG2, ref Tolosa et al. 2012",+VE
same,Structural based (HCI),"[5]; In vitro Assay, ref Xu 2008",+VE
same,"DILI in vitro assay prediction, Xu (2008)","[5]; Structural based (HCI), human hepatocytes, ref Xu et al. 2008",+VE
same,Partition Hybrid HRM Score,"[6]; In vitro Assay, ref Aleo 2019",-VE
same,Ro2 Hybrid HRM Score,"[6]; In vitro Assay, ref Aleo 2019",+VE
same,"Partition Hybrid HRM Score ≥4, Aleo (2019)",[6]; [20],-VE
same,"Partition Hybrid HRM Score ≥8, Aleo (2019)",[6]; [20],-VE
same,"Rule of Two hybrid HRM Score ≥3, Aleo (2019)",[6]; [20],+VE (Rule of Two hybrid HRM Score ≥3)
same,"Rule of Two hybrid HRM Score ≥8, Aleo (2019)",[6]; [20],-VE
same,"PHH/100xCmax, Proctor (2017)","[7]; 2D PHH, ATP, IC50 < 100 × Cmax.tot, ref Proctor et al. 2017",-VE
same,"PHH/100uM, Proctor (2017)","[7]; 2D PHH, ATP, IC50 threshold 100 µM, ref Proctor et al. 2017",-VE
same,PHH ATP <100uM,[7]; [21],-VE
same,hLiMTs ATP <100uM,[8]; [21],+VE (IC50 threshold of 100 µM)
same,"hLiMTs/100xCmax, Proctor (2017)","[8]; hLiMTs, ATP, IC50 < 100 × Cmax.tot, ref Proctor et al. 2017",+VE (IC50 < 100 × Cmax.tot)
same,"hLiMTs/100uM, Proctor (2017)","[8]; hLiMTs, ATP, IC50 threshold 100 µM, ref Proctor et al. 2017",+VE (IC50 threshold of 100 µM)
same,hLiMTs ATP <20 x Cmax,"[9]; In vitro Assay, ref Vorrink 2018",+VE (IC20 < 20 × Cmax.tot cut-off)
same,"DILI in vitro assay prediction, Vorrink (2018)","[9]; PHH spheroids, ATP, 14 days, IC20 < 20 × Cmax.tot, ref Vorrink et al. 2018",+VE (IC20 < 20 × Cmax.tot cut-off)
same,Cmax,[10],7.21 µM
same,fu,[11],0.700
same,Assigned DILI category,"[12]; Chen et al. 2016 or literature alignment, ref Chen et al. 2016",3
same,In vivo DILI,[12]; […],+VE
same,In vivo DILI,[12]; ref Aleo 2019,+VE
same,In vivo DILI,[12]; ref Dawson 2012,+VE
same,In vivo DILI,[12]; ref Garside 2014,+VE
same,In vivo DILI,[12]; ref Gustafsson 2014,+VE
same,In vivo DILI,[12]; ref O'Brien 2006,+VE
same,In vivo DILI,[12]; ref Proctor 2017,+VE
same,In vivo DILI,[12]; ref Tolosa 2012,+VE
same,In vivo DILI,[12]; ref Tolosa 2019,+VE
same,In vivo DILI,[12]; ref Vorrink 2018,+VE
same,In vivo DILI,[12]; ref Xu 2008,+VE
same,THLE-Null,[13],-VE
same,THLE-Null/3A4,[13],-VE
same,Cluster 1-6 +VE Assay,[14],-VE
same,Upcytes multi donor assay 14day data,[15],+VE
same,DILI Score (FDA) (1-8),[16],3
same,Inhibition of rBsep cutoff<1& cmax u>.2,[17],-VE
same,Inhibition of rBsep cutoff<3,[17],-VE
same,AC50,[18]; read-out: ATP endpoint AC50,1180 nM
same,minimal effective concentration,[18]; read-out: ATP endpoint MEC,0.361 µM
same,AC50,[18]; read-out: HCS endpoint AC50,41600 nM
same,minimal effective concentration,[18]; read-out: HCS endpoint MEC,1.58 µM
same,DILI prediction hLiMTs (HCS-MEC),[18]; [22],+VE (MEC < 25 × Cmax.tot cut-off)
same,hLiMTs <25x Avg Cmax ATP,"[18]; hLiMTs, ATP endpoint, cut-off <25x Avg Cmax",+ve
same,hLiMTs <100x Avg Cmaxu ATP,"[18]; hLiMTs, ATP endpoint, cut-off <100x Avg Cmaxu",+ve (<100x Avg Cmaxu)
same,hLiMTs <25x Avg Cmax HCS,"[18]; hLiMTs, HCS endpoints, cut-off <25x Avg Cmax",+ve
same,hLiMTs <100x Avg Cmaxu HCS,"[18]; hLiMTs, HCS endpoints, cut-off <100x Avg Cmaxu",+ve (<100x Avg Cmaxu)
same,hLiMTs <25x Avg Cmax All,"[18]; hLiMTs, all endpoints (ATP and HCS), cut-off <25x Avg Cmax",+ve
same,hLiMTs Cmax max All,"[18]; hLiMTs, all endpoints, Cmax max used",+ve
same,hLiMTs Cmax min All,"[18]; hLiMTs, all endpoints, Cmax min used",+ve
same,hLiMTs <10 uM All,"[18]; hLiMTs, all endpoints, cut-off <10 uM",+ve (<10 uM)
same,hLiMTs <100x Avg Cmaxu All,"[18]; hLiMTs, all endpoints, cut-off <100x Avg Cmaxu",+ve (<100x Avg Cmaxu)
same,HepaRG <25x Avg Cmax ATP,"[19]; HepaRG, ATP endpoint, cut-off <25x Avg Cmax",+ve
same,HepaRG <100x Avg Cmaxu ATP,"[19]; HepaRG, ATP endpoint, cut-off <100x Avg Cmaxu",+ve (<100x Avg Cmaxu)
same,HepaRG <25x Avg Cmax HCS,"[19]; HepaRG, HCS endpoints, cut-off <25x Avg Cmax",+ve
same,HepaRG <100x Avg Cmaxu HCS,"[19]; HepaRG, HCS endpoints, cut-off <100x Avg Cmaxu",+ve (<100x Avg Cmaxu)
same,HepaRG <25x Avg Cmax All,"[19]; HepaRG, all endpoints (ATP and HCS), cut-off <25x Avg Cmax",+ve
same,HepaRG Cmax max All,"[19]; HepaRG, all endpoints, Cmax max used",+ve
same,HepaRG Cmax min All,"[19]; HepaRG, all endpoints, Cmax min used",+ve
same,HepaRG <10 uM All,"[19]; HepaRG, all endpoints, cut-off <10 uM",+ve (<10 uM)
same,HepaRG <100x Avg Cmaxu All,"[19]; HepaRG, all endpoints, cut-off <100x Avg Cmaxu",+ve (<100x Avg Cmaxu)
same,AC50,"[19]; HepaRG, read-out: ATP endpoint AC50",480 nM
same,minimal effective concentration,"[19]; HepaRG, read-out: ATP endpoint MEC",0.278 µM
same,AC50,"[19]; HepaRG, read-out: HCS endpoint AC50",2000 nM
same,minimal effective concentration,"[19]; HepaRG, read-out: HCS endpoint MEC",0.0805 µM
same,DILI prediction HepaRG spheroids (HCS-MEC),[19]; [22],+VE (MEC < 25 × Cmax.tot cut-off)
